Assay results published in publication PMC5218480 (PLoS ONE, 2017).

Tested on: MV-4-11 cells
Assay: Gene expression microarray analysis (Affymetrix PrimeView) and GSEA
Assay type: cell-based, human
Design: RFU PODN (11730768_x_at) / Fold change /veh PODN (11730768_x_at) / RFU LINC00158 (11744669_a_at) / Fold change /veh LINC00158 (11744669_a_at) / RFU DUSP10 (11751237_a_at) / Fold change /veh DUSP10 (11751237_a_at) / RFU ID3 (11757404_x_at) / Fold change /veh ID3 (11757404_x_at) / RFU PLEKHG5 (11737974_s_at) / Fold change /veh PLEKHG5 (11737974_s_at) / RFU LRRC4B (11730491_at) / Fold change /veh LRRC4B (11730491_at) / RFU GIMAP4 (11747438_a_at) / Fold change /veh GIMAP4 (11747438_a_at) / RFU KRT8 (11758183_x_at) / Fold change /veh KRT8 (11758183_x_at) / RFU CNN1 (11734310_a_at) / Fold change /veh CNN1 (11734310_a_at) / RFU VPS37D (11726825_at) / Fold change /veh VPS37D (11726825_at) / RFU C10orf10 (11716522_x_at) / Fold change /veh C10orf10 (11716522_x_at) / RFU KIR2DL2 /// KIR2DL4 /// KIR2DL5A /// KIR2DL5B /// KIR2DS1 /// KIR2DS2 /// KIR2DS3 /// KIR2DS4 /// KIR3DL3 /// KIR3DL3 /// KIR3DS1 (11738374_at) / Fold change /veh KIR2DL2 /// KIR2DL4 /// KIR2DL5A /// KIR2DL5B /// KIR2DS1 /// KIR2DS2 /// KIR2DS3 /// KIR2DS4 /// KIR3DL3 /// KIR3DL3 /// KIR3DS1 (11738374_at) / RFU C1QL1 (11718748_at) / Fold change /veh C1QL1 (11718748_at) / RFU TMPRSS4 (11747572_a_at) / Fold change /veh TMPRSS4 (11747572_a_at) / RFU HAMP (11756126_x_at) / Fold change /veh HAMP (11756126_x_at) / RFU RNFT2 (11725882_a_at) / Fold change /veh RNFT2 (11725882_a_at) / RFU NR4A2 (11747474_a_at) / Fold change /veh NR4A2 (11747474_a_at) / RFU ABCC12 (11746883_a_at) / Fold change /veh ABCC12 (11746883_a_at) / RFU TMEM136 (11760407_x_at) / Fold change /veh TMEM136 (11760407_x_at) / RFU CLDN22 /// WWC2 (11732394_at) / Fold change /veh CLDN22 /// WWC2 (11732394_at) / RFU HLA-DPB1 (11760878_x_at) / Fold change /veh HLA-DPB1 (11760878_x_at) / RFU SPINT1 (11716480_a_at) / Fold change /veh SPINT1 (11716480_a_at) / RFU GAP43 (11754022_s_at) / Fold change /veh GAP43 (11754022_s_at) / RFU A4GNT (11735810_at) / Fold change /veh A4GNT (11735810_at) / RFU PRB3 (11715151_x_at) / Fold change /veh PRB3 (11715151_x_at) / RFU TUBB4B (11761932_at) / Fold change /veh TUBB4B (11761932_at) / RFU CAPN14 (11732068_a_at) / Fold change /veh CAPN14 (11732068_a_at) / RFU TMCC2 (11721928_a_at) / Fold change /veh TMCC2 (11721928_a_at) / RFU IRGQ (11745062_a_at) / Fold change /veh IRGQ (11745062_a_at) / RFU FAM174B (11720279_a_at) / Fold change /veh FAM174B (11720279_a_at) / RFU TMPRSS4 (11748680_a_at) / Fold change /veh TMPRSS4 (11748680_a_at) / RFU FAM212B (11763350_a_at) / Fold change /veh FAM212B (11763350_a_at) / RFU PLEKHG5 (11743358_a_at) / Fold change /veh PLEKHG5 (11743358_a_at) / RFU ZSCAN30 (11745921_a_at) / Fold change /veh ZSCAN30 (11745921_a_at) / RFU CMKLR1 (11741424_a_at) / Fold change /veh CMKLR1 (11741424_a_at) / RFU LOC101060620 /// MAPK8IP1 (11723275_at) / Fold change /veh LOC101060620 /// MAPK8IP1 (11723275_at) / RFU SPTSSB (11747773_x_at) / Fold change /veh SPTSSB (11747773_x_at) / RFU PRSS12 (11739890_at) / Fold change /veh PRSS12 (11739890_at) / RFU BIN1 (11741810_x_at) / Fold change /veh BIN1 (11741810_x_at) / RFU WNT11 (11732464_a_at) / Fold change /veh WNT11 (11732464_a_at) / RFU C10orf10 (11716521_a_at) / Fold change /veh C10orf10 (11716521_a_at) / RFU C5orf56 (11738089_at) / Fold change /veh C5orf56 (11738089_at) / RFU CYB561 (11721691_x_at) / Fold change /veh CYB561 (11721691_x_at) / RFU ANKRD19P (11752326_a_at) / Fold change /veh ANKRD19P (11752326_a_at) / RFU OR2T12 /// OR2T33 /// OR2T8 (11738714_s_at) / Fold change /veh OR2T12 /// OR2T33 /// OR2T8 (11738714_s_at) / RFU VCAN (11748164_a_at) / Fold change /veh VCAN (11748164_a_at) / RFU JSRP1 (11732532_at) / Fold change /veh JSRP1 (11732532_at) / RFU KRTAP10-11 (11738290_x_at) / Fold change /veh KRTAP10-11 (11738290_x_at) / RFU MYO3A (11730013_a_at) / Fold change /veh MYO3A (11730013_a_at) / RFU EBF3 (11725865_a_at) / Fold change /veh EBF3 (11725865_a_at) / RFU CAMK2N1 (11719241_x_at) / Fold change /veh CAMK2N1 (11719241_x_at) / RFU C5orf56 (11738088_a_at) / Fold change /veh C5orf56 (11738088_a_at) / RFU OLFML3 (11715873_a_at) / Fold change /veh OLFML3 (11715873_a_at) / RFU LOC100653217 /// NTM (11731650_a_at) / Fold change /veh LOC100653217 /// NTM (11731650_a_at) / RFU MAPK11 (11762145_a_at) / Fold change /veh MAPK11 (11762145_a_at) / RFU FIZ1 (11724087_x_at) / Fold change /veh FIZ1 (11724087_x_at) / RFU OASL (11726364_x_at) / Fold change /veh OASL (11726364_x_at) / RFU SOX15 (11748057_x_at) / Fold change /veh SOX15 (11748057_x_at) / RFU CD79A (11719716_a_at) / Fold change /veh CD79A (11719716_a_at) / RFU HIST1H1D (11736915_at) / Fold change /veh HIST1H1D (11736915_at) / RFU CASKIN2 (11723855_a_at) / Fold change /veh CASKIN2 (11723855_a_at) / RFU LOC730098 (11760151_x_at) / Fold change /veh LOC730098 (11760151_x_at) / RFU OR4N2 (11742367_at) / Fold change /veh OR4N2 (11742367_at) / RFU PRRT2 (11749266_a_at) / Fold change /veh PRRT2 (11749266_a_at) / RFU SNX32 (11753110_a_at) / Fold change /veh SNX32 (11753110_a_at) / RFU CDHR5 (11726645_a_at) / Fold change /veh CDHR5 (11726645_a_at) / RFU RCAN1 (11760418_a_at) / Fold change /veh RCAN1 (11760418_a_at) / RFU FAM167A (11723789_a_at) / Fold change /veh FAM167A (11723789_a_at) / RFU FAM26E (11764081_at) / Fold change /veh FAM26E (11764081_at) / RFU ISYNA1 (11749810_s_at) / Fold change /veh ISYNA1 (11749810_s_at) / RFU ACY1 (11761880_at) / Fold change /veh ACY1 (11761880_at) / RFU 11764098_at / Fold change /veh 11764098_at / RFU SAMD14 (11745864_x_at) / Fold change /veh SAMD14 (11745864_x_at) / RFU NPB (11741838_a_at) / Fold change /veh NPB (11741838_a_at) / RFU TMPRSS6 (11731388_a_at) / Fold change /veh TMPRSS6 (11731388_a_at) / RFU KRTAP10-2 (11738614_at) / Fold change /veh KRTAP10-2 (11738614_at) / RFU ARHGAP8 /// PRR5-ARHGAP8 (11727945_x_at) / Fold change /veh ARHGAP8 /// PRR5-ARHGAP8 (11727945_x_at) / RFU KRTAP5-7 /// NADSYN1 (11734609_at) / Fold change /veh KRTAP5-7 /// NADSYN1 (11734609_at) / RFU RASL12 (11751679_a_at) / Fold change /veh RASL12 (11751679_a_at) / RFU CDKN2B (11736163_a_at) / Fold change /veh CDKN2B (11736163_a_at) / RFU PRF1 (11729649_at) / Fold change /veh PRF1 (11729649_at) / RFU, ZNF638 /// ZNF638-IT1 / Fold change vs veh, ZNF638 /// ZNF638-IT1 / RFU, PANK3 / Fold change vs veh, PANK3 / RFU, SH3YL1 / Fold change vs veh, SH3YL1 / RFU, ZEB2 / Fold change vs veh, ZEB2 / RFU, NRIP1 / Fold change vs veh, NRIP1 / RFU, PTTG1IP / Fold change vs veh, PTTG1IP / RFU, CAPN2 / Fold change vs veh, CAPN2 / RFU, MED14 / Fold change vs veh, MED14 / RFU, SNORA58 / Fold change vs veh, SNORA58 / RFU, C1orf63 / Fold change vs veh, C1orf63 / RFU, LRRFIP1 / Fold change vs veh, LRRFIP1 / RFU, NDUFAF7 / Fold change vs veh, NDUFAF7 / RFU, SLC12A2 / Fold change vs veh, SLC12A2 / RFU, IBTK / Fold change vs veh, IBTK / RFU, ESF1 / Fold change vs veh, ESF1 / Fold change vs veh, TMEM50B / RFU, TAOK1 / Fold change vs veh, TAOK1 / RFU, ACBD3 / Fold change vs veh, ACBD3 / RFU, TMA16 / Fold change vs veh, TMA16 / RFU, RWDD3 / Fold change vs veh, RWDD3 / RFU, BCAT1 / Fold change vs veh, BCAT1 / RFU, EDEM3 / Fold change vs veh, EDEM3 / RFU, TMEM33 / Fold change vs veh, TMEM33 / RFU, WDR75 / Fold change vs veh, WDR75 / RFU, AHCTF1 / Fold change vs veh, AHCTF1 / RFU, TFRC / Fold change vs veh, TFRC / RFU, ZDHHC17 / Fold change vs veh, ZDHHC17 / RFU, NOM1 / Fold change vs veh, NOM1 / RFU, ARL8B / Fold change vs veh, ARL8B / RFU, ZBTB11 / Fold change vs veh, ZBTB11 / RFU, TAMM41 / Fold change vs veh, TAMM41 / RFU, KIAA1704 /// LOC100996395 / Fold change vs veh, KIAA1704 /// LOC100996395 / RFU, ING1 / Fold change vs veh, ING1 / RFU, TRMT61B / Fold change vs veh, TRMT61B / RFU, FUBP3 / Fold change vs veh, FUBP3 / RFU, TP53 / Fold change vs veh, TP53 / RFU, TNKS2 / Fold change vs veh, TNKS2 / RFU, ZFP14 / Fold change vs veh, ZFP14 / RFU, ACTR2 / Fold change vs veh, ACTR2 / RFU, PPP3R1 / Fold change vs veh, PPP3R1 / RFU, PIK3R1 / Fold change vs veh, PIK3R1 / RFU, HNRNPA1 / Fold change vs veh, HNRNPA1 / RFU, RNF170 / Fold change vs veh, RNF170 / RFU, ZNF28 / Fold change vs veh, ZNF28 / RFU, RNGTT / Fold change vs veh, RNGTT / RFU, OGT / Fold change vs veh, OGT / RFU, BRD1 / Fold change vs veh, BRD1 / RFU, MARS / Fold change vs veh, MARS / RFU, ZNF655 / Fold change vs veh, ZNF655 / RFU, FAHD1 / Fold change vs veh, FAHD1 / RFU, BDP1 / Fold change vs veh, BDP1 / RFU, LRRCC1 / Fold change vs veh, LRRCC1 / RFU, ARID1A / Fold change vs veh, ARID1A / RFU, ZNF146 / Fold change vs veh, ZNF146 / RFU, ZNF330 / Fold change vs veh, ZNF330 / RFU, GPN3 / Fold change vs veh, GPN3 / RFU, C9orf123 / Fold change vs veh, C9orf123 / RFU, N4BP2L2 / Fold change vs veh, N4BP2L2 / RFU, ARFIP1 / Fold change vs veh, ARFIP1 / RFU, FAM179B / Fold change vs veh, FAM179B / RFU, BCL10 / Fold change vs veh, BCL10 / RFU, UHRF1BP1L / Fold change vs veh, UHRF1BP1L / RFU, BET1 / Fold change vs veh, BET1 / RFU, CNOT2 / Fold change vs veh, CNOT2 / RFU, ZNF268 / Fold change vs veh, ZNF268 / Fold change vs veh, ZNF507 / RFU, DGCR2 / Fold change vs veh, DGCR2 / RFU, WDSUB1 / Fold change vs veh, WDSUB1 / Fold change vs veh, HSP90B1 /// MIR3652 / RFU, ADSS / Fold change vs veh, ADSS / RFU, GK / Fold change vs veh, GK / RFU, ZNF148 / Fold change vs veh, ZNF148 / RFU, TAF9 / Fold change vs veh, TAF9 / RFU, SLC1A5 / Fold change vs veh, SLC1A5 / RFU, SLMO2 / Fold change vs veh, SLMO2 / RFU, ABCC4 / Fold change vs veh, ABCC4 / RFU, LOC101060439 /// RAP1B / Fold change vs veh, LOC101060439 /// RAP1B / RFU, RFX7 / Fold change vs veh, RFX7 / RFU, GTPBP10 / Fold change vs veh, GTPBP10 / RFU, CNEP1R1 / Fold change vs veh, CNEP1R1 / RFU, BIVM-ERCC5 /// ERCC5 / Fold change vs veh, BIVM-ERCC5 /// ERCC5 / RFU, ILF3 / Fold change vs veh, ILF3 / RFU 11762660_at / Fold change /veh 11762660_at / RFU VCAN (11757783_s_at) / Fold change /veh VCAN (11757783_s_at) / RFU DDX43 (11728927_at) / Fold change /veh DDX43 (11728927_at) / RFU KRT8 (11758188_x_at) / Fold change /veh KRT8 (11758188_x_at) / RFU NKD1 (11759106_at) / Fold change /veh NKD1 (11759106_at) / RFU SRD5A1 (11742802_a_at) / Fold change /veh SRD5A1 (11742802_a_at) / RFU TPSAB1 /// TPSB2 (11721975_s_at) / Fold change /veh TPSAB1 /// TPSB2 (11721975_s_at) / RFU GSTM3 (11746129_a_at) / Fold change /veh GSTM3 (11746129_a_at) / RFU IL23R (11737362_x_at) / Fold change /veh IL23R (11737362_x_at) / RFU TMEM51 (11727254_a_at) / Fold change /veh TMEM51 (11727254_a_at) / RFU PIWIL2 (11732686_x_at) / Fold change /veh PIWIL2 (11732686_x_at) / RFU ORM1 (11744905_x_at) / Fold change /veh ORM1 (11744905_x_at) / RFU CCDC152 (11743942_at) / Fold change /veh CCDC152 (11743942_at) / RFU ECM1 (11717891_a_at) / Fold change /veh ECM1 (11717891_a_at) / RFU IL23R (11748794_a_at) / Fold change /veh IL23R (11748794_a_at) / RFU TNFAIP8L3 (11732012_x_at) / Fold change /veh TNFAIP8L3 (11732012_x_at) / RFU MBOAT4 (11741988_at) / Fold change /veh MBOAT4 (11741988_at) / RFU 11764193_at / Fold change /veh 11764193_at / RFU TMEM53 (11763286_at) / Fold change /veh TMEM53 (11763286_at) / RFU MAGEB2 (11727129_at) / Fold change /veh MAGEB2 (11727129_at) / RFU TMEM200A (11744735_a_at) / Fold change /veh TMEM200A (11744735_a_at) / RFU CCDC152 (11751479_a_at) / Fold change /veh CCDC152 (11751479_a_at) / RFU FAM211A (11726209_a_at) / Fold change /veh FAM211A (11726209_a_at) / RFU RGS16 (11746705_a_at) / Fold change /veh RGS16 (11746705_a_at) / RFU VCAN (11755009_s_at) / Fold change /veh VCAN (11755009_s_at) / RFU RHOB (11743442_s_at) / Fold change /veh RHOB (11743442_s_at) / RFU RGS16 (11720943_a_at) / Fold change /veh RGS16 (11720943_a_at) / RFU RGS16 (11720944_at) / Fold change /veh RGS16 (11720944_at) / RFU, VPS4B / Fold change vs veh, VPS4B / RFU, CREB1 / Fold change vs veh, CREB1 / RFU, DNAJC13 / Fold change vs veh, DNAJC13 / RFU, GNAQ / Fold change vs veh, GNAQ / RFU, CDK5R1 / Fold change vs veh, CDK5R1 / RFU, ZRANB3 / Fold change vs veh, ZRANB3 / RFU, CUL4A / Fold change vs veh, CUL4A / RFU, CCNY / Fold change vs veh, CCNY / RFU, UFL1 / Fold change vs veh, UFL1 / RFU, COG3 / Fold change vs veh, COG3 / RFU, DIAPH2 / Fold change vs veh, DIAPH2 / RFU, SKA2 / Fold change vs veh, SKA2 / RFU, AFF3 / Fold change vs veh, AFF3 / RFU, LMF1 / Fold change vs veh, LMF1 / RFU, IPO11 / Fold change vs veh, IPO11 / RFU, DFFB / Fold change vs veh, DFFB / RFU, FOXP1 / Fold change vs veh, FOXP1 / RFU, CARD8 / Fold change vs veh, CARD8 / RFU, STRN3 / Fold change vs veh, STRN3 / RFU, ADK / Fold change vs veh, ADK / RFU, RASSF2 / Fold change vs veh, RASSF2 / RFU, WIPF1 / Fold change vs veh, WIPF1 / RFU, LARP1B / Fold change vs veh, LARP1B / RFU, RASA1 / Fold change vs veh, RASA1 / RFU, RB1 / Fold change vs veh, RB1 / RFU, PPFIA1 / Fold change vs veh, PPFIA1 / RFU, MAT2A / Fold change vs veh, MAT2A / RFU, CCT5 / Fold change vs veh, CCT5 / RFU, WDR92 / Fold change vs veh, WDR92 / RFU, CUX1 / Fold change vs veh, CUX1 / RFU, TTC7A / Fold change vs veh, TTC7A / RFU, TMEM135 / Fold change vs veh, TMEM135 / RFU, DEPTOR / Fold change vs veh, DEPTOR / RFU, CPM / Fold change vs veh, CPM / RFU, DNAJB6 / Fold change vs veh, DNAJB6 / RFU, CACNA2D3 / Fold change vs veh, CACNA2D3 / RFU, DTX4 / Fold change vs veh, DTX4 / RFU, TFCP2 / Fold change vs veh, TFCP2 / RFU, GMCL1 /// GMCL1P1 / Fold change vs veh, GMCL1 /// GMCL1P1 / RFU, AEBP2 / Fold change vs veh, AEBP2 / RFU, SNHG1 /// SNORD22 /// SNORD25 /// SNORD26 /// SNORD27 /// SNORD28 /// SNORD29 /// SNORD31 / Fold change vs veh, SNHG1 /// SNORD22 /// SNORD25 /// SNORD26 /// SNORD27 /// SNORD28 /// SNORD29 /// SNORD31 / Fold change (Aza/veh), C12orf56 (ProbeSet 11735607_a_at) / Fold change (ACY-1035/veh), C12orf56 (ProbeSet 11735607_a_at) / Fold change (Aza/veh), FGFR1OP (ProbeSet 11751329_s_at) / Fold change (ACY-1035/veh), FGFR1OP (ProbeSet 11751329_s_at) / Fold change (Aza/veh), VPS36 (ProbeSet 11739960_a_at) / Fold change (ACY-1035/veh), VPS36 (ProbeSet 11739960_a_at) / RFU SYPL1 (11715823_x_at) / Fold change /veh SYPL1 (11715823_x_at) / RFU IGFBP7 (11715501_s_at) / Fold change /veh IGFBP7 (11715501_s_at) / RFU REEP3 (11722064_at) / Fold change /veh REEP3 (11722064_at) / RFU IGLL1 (11728026_x_at) / Fold change /veh IGLL1 (11728026_x_at): dose or concentration left out as unconfirmed
Details: ProbeSet 11758397_s_at; LIST B

Compound: Nc1ccc(-c2cccs2)cc1NC(=O)c1ccc2c(c1)cc(C1CC1)n2CCN1CCOCC1 [ACY-1035]
- RFU, RNF170: 143.47 RFU
